According to patent US20200147028A1, “TREATMENT OF RESPIRATORY INFECTION WITH A TLR2 AGONIST” (Ena Therapeutics Pty Ltd, priority 2017, published 2020):
Entries after “also recorded” stand apart in the source; their conditions may differ. Like-named read-outs stand apart in the source and are kept apart here. No end group written: not given here.

Assays:
[1] = system: TNF-α; test: Mouse RV1B infection with fluticasone propionate: TNF-α in BAL by ELISA; format: in vivo, BALB/c mice; details: FP treatment
[2] = format: in vivo, BALB/c mice; details: 2 pmol INNA-006 day −7 or day −7 & −1; FP 1 hour before RV1B
Excerpt: Each group contained 8 mice.

[3] = system: Rhinovirus serotype 1B (RV1B); test: Mouse RV1B infection with fluticasone propionate: lung viral RNA by qPCR; details: FP 1 hour before RV1B in Saline control mice
[4] = parameters: species or system BALB/c mice; details: mouse, in vivo
Excerpt: Each group contained 5 mice.

[5] = system: BAL inflammatory cells; test: Mouse RV1B infection model: BAL cell analysis
Protocol: Following sacrifice, mice were tracheally cannulated and 1 ml of Hanks buffered saline solution (Hyclone™, GE Life Sciences) flushed through the airways, 3-5 times. BAL cells were pelleted by centrifugation and supernatant was collected and stored at −80° C. for ELISAs. The pelleted cells were red blood cells lysed and the remaining cells were counted on a heamocytometer by trypan blue exclusion. Cell suspensions were then cytocentrifuged onto slides and fixed and stained with Diff Quick (POCD) solutions as per manufacturer's recommendations. A minimum of 200 total cells were counted per slide and numbers of neutrophils, lymphocytes, and macrophages were determined.

[6] = system: TNFα; test: Mouse RV1B infection model: TNFα in BAL by ELISA
Protocol: (§1) Remaining lung lobes we snap frozen in liquid nitrogen, homogenised in 600 μl PBS containing protease inhibitors (Roche) by TissueLyser II run twice at 30 Hz for 4 minutes. Cell debris was pelleted by centrifugation, samples were diluted 1:2 with PBS and stored at −80° C. BAL fluid was then analysed for production of KC/IL-8 (CXCL1) and TNF-α by Duoset ELISA (R&D Systems) as per manufacturer's instructions.

[7] = system: CXCL1; test: Mouse RV1B infection model: CXCL1 in BAL by ELISA
Protocol: as §1

[8] = system: Rhinovirus serotype 1B (RV1B); test: Mouse RV1B infection model: lung viral RNA by qPCR; details: for reduction of RV infection (lung RV copy number): Study 1E: 10 pmol day −7; for RV copy number in lung: Study 1E: every dose 1-10 pmol day −7; for lung viral load: day +1
[9] = biological target: TLR-2 (Homo sapiens, UniProt O60603); test: NF-κB luciferase reporter in HEK293T cells transfected with human TLR2; format: cell-based; parameters: expressed in transfected cells; host or cells: HEK293T; details: dose range 12.2 pM to 3.125 pM, FIG. 20
TLR-2, sequence (O60603 21-784): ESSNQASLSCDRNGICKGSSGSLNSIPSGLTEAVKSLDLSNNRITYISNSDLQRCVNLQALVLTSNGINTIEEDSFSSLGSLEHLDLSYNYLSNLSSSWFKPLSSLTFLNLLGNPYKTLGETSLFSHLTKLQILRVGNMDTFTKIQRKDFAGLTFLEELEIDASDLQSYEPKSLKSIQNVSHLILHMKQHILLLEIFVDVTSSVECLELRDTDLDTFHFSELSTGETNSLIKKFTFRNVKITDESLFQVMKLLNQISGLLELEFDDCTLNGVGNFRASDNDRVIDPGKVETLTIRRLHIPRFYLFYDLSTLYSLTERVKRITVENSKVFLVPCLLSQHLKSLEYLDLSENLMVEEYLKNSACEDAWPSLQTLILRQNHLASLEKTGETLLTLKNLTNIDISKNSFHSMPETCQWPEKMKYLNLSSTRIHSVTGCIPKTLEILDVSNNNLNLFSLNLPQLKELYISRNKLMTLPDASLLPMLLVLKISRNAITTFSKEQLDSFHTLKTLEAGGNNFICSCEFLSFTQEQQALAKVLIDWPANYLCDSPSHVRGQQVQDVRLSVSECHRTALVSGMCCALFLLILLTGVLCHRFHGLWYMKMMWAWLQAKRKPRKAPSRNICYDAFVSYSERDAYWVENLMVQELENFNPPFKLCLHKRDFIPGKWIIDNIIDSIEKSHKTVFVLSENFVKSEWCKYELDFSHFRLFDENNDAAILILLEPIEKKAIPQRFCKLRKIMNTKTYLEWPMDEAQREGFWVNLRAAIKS
TLR-2, sequence (Q15399 25-786 partner): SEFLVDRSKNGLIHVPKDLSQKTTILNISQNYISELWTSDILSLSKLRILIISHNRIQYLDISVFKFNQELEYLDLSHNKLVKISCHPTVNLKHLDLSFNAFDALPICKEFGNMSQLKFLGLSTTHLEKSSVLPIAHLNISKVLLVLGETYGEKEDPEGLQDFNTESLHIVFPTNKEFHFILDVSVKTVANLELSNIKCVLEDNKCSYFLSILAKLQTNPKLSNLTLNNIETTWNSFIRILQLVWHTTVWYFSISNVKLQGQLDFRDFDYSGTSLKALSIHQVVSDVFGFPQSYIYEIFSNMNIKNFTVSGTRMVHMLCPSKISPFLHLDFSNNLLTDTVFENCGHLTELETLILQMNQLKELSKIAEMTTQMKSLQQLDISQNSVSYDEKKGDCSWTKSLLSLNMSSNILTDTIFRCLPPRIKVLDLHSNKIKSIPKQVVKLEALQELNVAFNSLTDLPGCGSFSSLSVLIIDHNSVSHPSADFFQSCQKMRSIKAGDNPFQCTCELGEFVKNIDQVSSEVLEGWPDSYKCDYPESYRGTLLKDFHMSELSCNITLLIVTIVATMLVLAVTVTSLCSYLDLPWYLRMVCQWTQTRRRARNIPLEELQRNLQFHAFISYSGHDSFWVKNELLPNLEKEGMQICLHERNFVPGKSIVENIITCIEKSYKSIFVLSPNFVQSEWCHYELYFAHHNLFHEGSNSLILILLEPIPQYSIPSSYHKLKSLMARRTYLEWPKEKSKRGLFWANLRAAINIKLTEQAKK
Protocol: Comparison of the abilities of various compounds to stimulate luciferase activity in an NF-κB cell-based reporter system was determined. Compounds tested include INNA-006 (or compound (1)); INNA-013 (or compound (4)); INNA-014 (or compound (3)); INNA-015 (or compound (2)); INNA-010; INNA-011 (or compound (5)); INNA-012 (or compound (6)); and INNA-009. HEK293T cells, transiently co-transfected with a human TLR2 plasmid and a luciferase-NF-κB plasmid reporter system, were exposed to various dilutions of each compound. Successful receptor binding and subsequent signal transduction events were determined by measuring the luminescence due to luciferase activity (results shown in FIG. 19—left to right columns for each concentration are in the following order INNA-006 (or compound (1)); INNA-013 (or compound (4)); INNA-014 (or compound (3)); INNA-015 (or compound (2)); INNA-010; INNA-011 (or compound (5)); INNA-012 (or compound (6)); and INNA-009.
Comparison of the in vitro TLR2 agonistic activity of Pam3Cys-Ser-PEG3000 and INNA-006: HEK293T cells, transiently co-transfected with a human TLR2 plasmid and a luciferase-NF-κB plasmid reporter system, were exposed to various dilutions of INNA-006 or Pam3Cys-Ser-PEG3000.
Successful receptor binding and subsequent signal transduction events were determined by measuring the luminescence due to luciferase activity (FIG. 20).

[10] = Study 1G: lowest doses (2 pmole and 1 pmole) day +1, listed as Peg-SS-Pam2Cys

CCC(=O)O[C@]1(C(=O)SCF)[C@H](C)C[C@H]2[C@@H]3C[C@H](F)C4=CC(=O)C=C[C@]4(C)[C@@]3(F)[C@@H](O)C[C@@]21C [FP, fluticasone propionate, reference compound]
TNF-α production stimulated by INNA-006 [1]: reduced TNF-α production stimulated by INNA-006 | weight loss [2]: no significant weight loss | viral lung load [3]: Viral lung load was increased; also recorded: increased viral lung load in Saline control mice only

Pam2Cys-SS-PEG [INNA-003]
weight loss [4]: weight loss at the higher doses | weight loss after second dose [4]: no weight loss observed | RV-induced BAL neutrophilic inflammation ([5]; Study 1E: day −7, day 2 p.i.): significantly reduced neutrophilic inflammation | inflammatory potency, Peg-SS-Pam2Cys versus Peg-S-Pam2Cys ([5]; Study 1F): Peg-SS-Pam2Cys more inflammatory | BAL neutrophils ([5]; Study 1F: 2 pmol, 1 day prior to RV or mock infection): only significantly increased in mice with Peg-SS-Pam2Cys treatment 1 day prior to RV or mock infection | BAL lymphocytes ([5]; Study 1F: 2 pmol, day −7, day −1 or both): induced by Peg-SS-Pam2Cys at all treatment times (except day −7 treatment with RV1B infection) | total BAL leukocytes in RV1B infected mice ([5]; Study 1F: 2 pmol, vs Saline RV): did not induce significantly higher leukocyte recruitment | total BAL leukocytes in mock infected mice ([5]; Study 1F: 2 pmol, vs Saline mock): Total leukocytes were increased | neutrophilic response in uninfected mice ([5]; Study 1F: three days after dosing (d-1 groups)): there was a neutrophilic response to Peg-SS-Pam2Cys | BAL lymphocytes ([5]; Study 1G: day +1 treatment): no changes to lymphocyte numbers | BAL macrophages ([5]; Study 1G: day +1 treatment): significantly reducing macrophage numbers | total BAL leucocyte numbers ([5]; Study 1G: day +1 treatment): no significant differences | BAL neutrophils ([5]; Study 1G: day +1 treatment, listed as Peg-SS-Pam2Cys): drastically increases neutrophil numbers in BAL; also recorded: increasing neutrophil recruitment | TNF-α in BAL ([6]; Study 1E: day −7, listed as Peg-SS-Pam2Cys): not increased by any of the compounds; also recorded: lack of induction of TNFα | TNF-α in BAL ([6]; Study 1F: 2 pmol, all groups): did not induce TNF-α in any of the groups | TNF-α in BAL ([6]; Study 1G: 10-1 pmol day +1): dose dependent upon drug treatment | TNF-α in BAL [6, 10]: not increased by the lowest doses; also recorded: no significant increase in KC or TNFα | CXCL1 in BAL ([7]; Study 1E: every dose (1-10 pmol) day −7): effectively reduced CXCL1 levels | CXCL1 in BAL ([7]; Study 1F: 2 pmol day −1, RV1B, listed as Peg-SS-Pam2Cys): CXCL1 production was only increased; also recorded: significantly increased in mice treated one day prior to infection | CXCL1 / lung inflammation after day −1 dose with prior day −7 dose ([7]; Study 1F: 2 pmol day −7 and day −1, listed as Peg-SS-Pam2Cys): protected from lung inflammation; also recorded: completely abolished | CXCL1 in BAL ([7]; Study 1G: 10-1 pmol day +1): dose dependent upon drug treatment | CXCL1 (KC) in BAL [7, 10]: not increased by the lowest doses; also recorded: no significant increase in KC or TNFα | reduction of RV infection (lung RV copy number) [8]: 84.82% | anti-viral efficacy relative to Pam2CysSK4 ([8]; Study 1E: 10 pmol dose day −7, listed as Peg-SS-Pam2Cys): better anti-viral efficacy compared to Pam2CysSK4 | RV copy number in lung ([8]; day 2 p.i.): significant reduction in RV infection | reduced viral RNA ([8]; Study 1F: single treatment at day −7): 70% | reduction in viral RNA ([8]; Study 1F: treatment at both days −7 and −1): approx. 90% | RV copy numbers in lung ([8]; Study 1G: 10, 5, 2, 1 pmol 1 day post-infection, day 2 p.i.): reduces RV1B copy numbers in the lung | lung viral load ([8]; Study 1G: doses 5 pmole per mouse and lower): significant reduction in lung viral load | lung viral load ([8]; Study 1G: highest dose 10 pmole per mouse): less effective

Pam2Cys-Ser-Lys-Lys-Lys-Lys (C(dipalmitoyl‑S‑glyceryl)SKKKK) [INNA-005, reference compound]
TNF-α in BAL ([6]; Study 1E: day −7): not increased by any of the compounds | CXCL1 in BAL ([7]; Study 1E: 10 pmol and 5 pmol dose day −7): effectively reduced CXCL1 levels | reduction in lung viral load ([8]; Study 1E, day −7 (discussion)): 50% | reduction of RV infection (lung RV copy number) [8]: 58% | RV copy number in lung ([8]; day 2 p.i.): significant reduction in RV infection

Pam3Cys-Ser-PEG3000
ability to signal NF-κB (luciferase), versus INNA-006 [9]: inferior to INNA-006
